These results are taken from patent publication US20090246186A1, “AGENT FOR IMPROVING NERVOUS SYSTEM CELL FUNCTIONS” (KANEKA CORPORATION, priority 2006, published 2009).

In data set [1] the test system is model mouse with Parkinson's disease. As to conditions: cited from earlier work.
The subject of the next data set is rat. As to conditions: 1.2 g/kg/day for 52 consecutive weeks; cited from earlier work.
The test system of another data set is SAMP8 mice. In words: Step-through passive avoidance learning experiment. The format is in vivo, mouse. An excerpt: Aging promoted mouse (SAMP8,3-week-old, male, each group N=8−10) models were divided into a group given a feed (CE-2, manufactured by (LEA Japan, Inc.) containing 0.5% of reduced coenzyme Q10 (containing about 1% oxidized coenzyme Q10) obtained in Production Example 1 and a group given a basic feed (CE-2, manufactured by CLEA Japan, Inc.) alone as a control group. The both groups were allowed a free access to the feed. The dose of reduced coenzyme Q10 obtained from the ingested amount of the feed and the body weight of the animal generally corresponded to 300-500 mg/kg/day.
The effect of reduced coenzyme Q for the learning and memory function was examined by a step-through passive avoidance learning experiment. When SAMP8 mice were placed in a light compartment of an apparatus consisting of two light and dark compartments, they enter the dark compartment since mouse prefers darkness. The mice were taught that the dark compartment was dangerous by applying an electric current (0.5 mA) for 3 sec from the floor of the dark compartment (acquisition trial). […]
To be specific, the mice were placed in the same apparatus again, and the time of stay in the light compartment was measured, based on which the learning, memory function of the mice was compared between with and without ingestion of reduced coenzyme Q in the present invention. […]

The subject of a further data set is PC12 cells. Kind of data set: Nerve cell protection on hydrogen peroxide-induced cell death (intracellular ATP amount). Conditions: 25, 50, 100 μg/ml for 24 hr, then 0.06 mM hydrogen peroxide; compared with oxidized coenzyme Q10. The data set is classed as cell-based. The procedure: As one of the causes of the nerve cell death, active oxygen species produced for various reasons is known. Therefore, a cell death protecting action of reduced coenzyme Q10 when PC12 cells are exposed to hydrogen peroxide was examined. PC12 cells were cultured in Dulbecco's Modified Eagle Medium containing 200 units of penicillin, 0.1 μg/ml streptomycin, and 10% fetal bovine serum under 37° C., 5% CO2 conditions. The cells were plated to a 96 well microplate at 1×10^4 cells/well, and cultured under the conditions of 37° C., 5% CO2. After 24 hr, the medium was removed and substituted with Dulbecco's Modified Eagle Medium containing 200 units of penicillin, […] streptomycin and 0.5% fetal bovine serum and supplemented with reduced coenzyme Q10 and oxidized coenzyme Q10 (25, 50, 100 μg/ml). After 24 hr, the medium was removed, and the cells were exposed to hydrogen peroxide so that the final concentration in the same medium would be 0.06 mM 24 hr later, and cultured under the conditions of 37° C., 5% CO2 for 15 min. The cells were washed 3 times with PBS, and the intracellular ATP amount was measured using an ATP quantify kit (Perkin Elmer) and compared.

In data set [2] the test system is normal rat or spontaneously diabetic rat. Conditions: cited from earlier work.

On to oxidized coenzyme Q, for which the symptom improving effect result in data set [1] is listed as “shows a symptom improving effect”.

Consider `COC1=C(OC)C(=O)C(C/C=C(\C)CC/C=C(\C)CC/C=C(\C)CC/C=C(\C)CC/C=C(\C)CC/C=C(\C)CC/C=C(\C)CC/C=C(\C)CC/C=C(\C)CCC=C(C)C)=C(C)C1=O` [Oxidized coenzyme Q10, oxidized coenzyme Q10], for which the toxicity result with rat was “no toxicity was observed”.

With `COc1c(O)c(C)c(C/C=C(\C)CC/C=C(\C)CC/C=C(\C)CC/C=C(\C)CC/C=C(\C)CC/C=C(\C)CC/C=C(\C)CC/C=C(\C)CC/C=C(\C)CCC=C(C)C)c(O)c1OC` [reduced coenzyme Q10], the “response latency time (passive avoidance test)” value with SAMP8 mice (feed containing 0.5% reduced coenzyme Q10 (300-500 mg/kg/day), after 8 weeks (11-week-old), vs control group) is given as “the number of mouse that showed a prolonged response latency time increased”. In addition, the “learning and memory disorder-improving effect” value with SAMP8 mice (short time administration, feed containing 0.5% reduced coenzyme Q10, 8 weeks) is “a learning and memory disorder-improving effect was observed”. Besides, the “cell death of PC12 cells induced by hydrogen peroxide” value in the data set with PC12 cells was “significantly prevented”. Besides, the “tissue degeneration caused by oxidative stress in the pancreas” value in data set [2] (diabetic rat) is “suppress”. In addition, in data set [2] (normal rat or spontaneously diabetic rat), the “amount of 8-hydroxy deoxyguanosine (oxidization marker) in urine” value is on record as “decrease”.
